Tested on: children with PFIC
Assay: Pooled analysis of PEDFIC 1 and PEDFIC 2 (up to 48 weeks): efficacy, sleep, responders vs nonresponders
Format: in vivo, human
From the text: This example describes key outcomes with odevixibat in children with PFIC1 (familial intrahepatic cholestasis 1 [FIC1] deficiency) or PFIC2 ((bile salt export pump [BSEP] deficiency) based on pooled analysis of data from the phase 3 PEDFIC 1 (P1; NCT03566238) and PEDFIC 2 (P2; NCT03659916) studies. This pooled analysis covers up to 48 weeks of odevixibat treatment from P1 and through the planned P2 interim data cut. The following outcomes are described: change in serum bile acids (sBAs), change in pruritus score (measured using the PRUCISION scale; range: 0-4), evaluation of growth and sleep parameters, and safety monitoring. Mean changes in autotaxin (linked to cholestatic pruritus intensity) and plasma 7α-hydroxy-4-cholesten-3-one (p-C4; marker of bile acid synthesis) levels were also summarized.
Patient sleep was evaluated based on caregiver report using the PRUCISION scale and via the clinician- or caregiver-reported Global Impression of Change (CGIC or CaGIC, respectively) sleep scales. Treatment response was defined as an sBA response (sBAs<65 or <102 μmol/L for patients with PFIC1 and PFIC2, respectively) or a pruritus response (a ≥1-point drop from baseline in pruritus score). Mean decreases in caregiver-reported percentage of days with scratching associated with bleeding, needing help falling asleep, and needing soothing were greater among Rs vs NRs (Table 10). At week 48, clinicians and caregivers reported that ≥88% of Rs had moderately or very much better sleep since starting odevixibat (Table 10).
Using pooled data from these studies, changes in parameters of cholestasis, pruritus, and hepatic laboratory markers in patients who responded to odevixibat treatment (Rs) vs treatment nonresponders (NRs). Two responder definitions were examined: 1) sBA response (i.e., sBAs<65 or <102 μmol/L for PFIC1 and PFIC2, respectively) and 2) sBA response or pruritus response (i.e., a ≥1-point drop from baseline in PRUCISION score).

[1] = patients with liver enzyme data at baseline
[2] = patients with liver enzyme data at week 4
[3] = patients with liver enzyme data at week 24
[4] = patients with liver enzyme data at week 48
[5] = pooled P1+P2, all odevixibat-treated patients
[6] = pooled P1+P2, baseline to weeks 37-48
[7] = sBA or pruritus response No, week 24, n 21
[8] = sBA or pruritus response No, weeks 1-4, n 28
[9] = sBA or pruritus response No, weeks 21-24, n 22
[10] = sBA or pruritus response No, weeks 45-48, n 2
[11] = sBA or pruritus response Yes, weeks 1-4, n 47
[12] = sBA or pruritus response Yes, weeks 21-24, n 34
[13] = sBA or pruritus response Yes, weeks 45-48, n 18
[14] = week 4, sBA or Pruritus Response No
[15] = week 4, sBA or Pruritus Response Yes
[16] = week 24, sBA or Pruritus Response No
[17] = week 24, sBA or Pruritus Response Yes
[18] = week 48, sBA or Pruritus Response No
[19] = week 48, sBA or Pruritus Response Yes

Compound: CCCCC1(CCCC)CN(c2ccccc2)c2cc(SC)c(OCC(=O)N[C@@H](C(=O)N[C@@H](CC)C(=O)O)c3ccc(O)cc3)cc2S(=O)(=O)N1 [Odevixibat, 1,1-dioxo-3,3-dibutyl-5-phenyl-7-methylthio-8-(N-{(R)-α-[N-((S)-1-carboxypropyl)carbamoyl]-4-hydroxybenzyl}carbamoylmethoxy)-2,3,4,5-tetrahydro-1,2,5-benzothiadiazepine]
- sBA or pruritus responders, n (responder rate [n/(n + m)] * 100) [1]: 48 (63) n (%)
- sBA responders, n (responder rate [n/(n + m)] * 100) [1]: 24 (39) n (%)
- sBA or pruritus responders, n (responder rate [n/(n + m)] * 100) [2]: 43 (61) n (%)
- sBA responders, n (responder rate [n/(n + m)] * 100) [2]: 23 (39) n (%)
- sBA or pruritus responders, n (responder rate [n/(n + m)] * 100) [3]: 31 (62) n (%)
- sBA responders, n (responder rate [n/(n + m)] * 100) [3]: 19 (40) n (%)
- sBA or pruritus responders, n (responder rate [n/(n + m)] * 100) [4]: 18 (75) n (%)
- sBA responders, n (responder rate [n/(n + m)] * 100) [4]: 15 (63) n (%)
- mean change from baseline to week 48 in alanine aminotransferase (ALT) [5]: −82 U/L
- mean change from baseline to week 48 in total bilirubin [5]: -18 µmol/L
- mean change in height Z score (pooled P1+P2, baseline to week 48): 0.5
- mean change in observer-reported percentage of days needing help falling asleep [6]: −52%
- mean change in observer-reported percentage of days needing soothing [6]: −51%
- mean change in observer-reported percentage of days seeing blood due to scratching [6]: −25%
- mean change in observer-reported percentage of days sleeping with caregiver [6]: −40%
- patients who met sBA response criteria (pooled P1+P2, during the analysis period, regardless of genotype): ≥ 50%
- mean change from baseline in sBAs (pooled P1+P2, end of the analysis period (up to 48 weeks), n=24): -213 µmol/L
- mean change in pruritus score (pooled P1+P2, end of the analysis period (up to 48 weeks), n=32): −1.4
- mean change in sBAs (pooled P1+P2, four weeks after starting odevixibat, n=68, baseline 250): -88 µmol/L
- mean change in pruritus score (pooled P1+P2, over the first 4-week period, n=75, baseline 2.9): −0.7
- mean positive pruritus assessments (PPAs) (pooled P1+P2, patients with PFIC1): 48%
- mean positive pruritus assessments (PPAs) (pooled P1+P2, patients with PFIC2 (including BSEP subtypes 1 and 2)): above 60%
- mean height Z score (pooled P1+P2, week 48, n=20, baseline −1.9 (n=75)): −0.8
- mean weight Z score (pooled P1+P2, week 48, n=21, baseline −1.1 (n=75)): −0.0
- rate of sBA or pruritus responders (pooled P1+P2, weeks 0-24): 57%
- rate of sBA responders (pooled P1+P2, weeks 0-24): 31%
- rate of sBA or pruritus responders (pooled P1+P2, weeks 25-36): 60%
- rate of sBA responders (pooled P1+P2, weeks 25-36): 48%
- rate of sBA or pruritus responders (pooled P1+P2, weeks 37-48): 65%
- rate of sBA responders (pooled P1+P2, weeks 37-48): 59%
- CGIC sleep, moderately or very much better (sBA or pruritus response No, week 4, n 26): 30.8%
- CaGIC sleep, moderately or very much better (sBA or pruritus response No, week 4, n 28): 25.0%
- CGIC sleep, moderately or very much better [7]: 33.3%
- CaGIC sleep, moderately or very much better [7]: 23.8%
- CaGIC sleep, moderately or very much better (sBA or pruritus response No, week 48, n 3): 33.3%
- CGIC sleep, moderately or very much better (sBA or pruritus response No, week 48, n 4): 25.0%
- % Days needing help falling asleep, mean change from baseline [8]: −10.4%
- % Days needing soothing, mean change from baseline [8]: −6.0%
- % Days with scratching associated with bleeding, mean change from baseline [8]: −6.5%
- % days sleeping with caregiver, mean change from baseline [8]: −3.1%
- Number of awakenings, mean change from baseline [8]: 1.3
- % Days needing help falling asleep, mean change from baseline [9]: −4.9%
- % Days needing soothing, mean change from baseline [9]: 7.8%
- % Days with scratching associated with bleeding, mean change from baseline [9]: 3.2%
- % days sleeping with caregiver, mean change from baseline [9]: 3.1%
- Number of awakenings, mean change from baseline [9]: 1.5
- % Days needing help falling asleep, mean change from baseline [10]: −1.8%
- % Days needing soothing, mean change from baseline [10]: 4.2%
- % Days with scratching associated with bleeding, mean change from baseline [10]: 12.5%
- % days sleeping with caregiver, mean change from baseline [10]: 0.0%
- Number of awakenings, mean change from baseline [10]: −4.3
- CaGIC sleep, moderately or very much better (sBA or pruritus response Yes, week 4, n 39): 48.7%
- CGIC sleep, moderately or very much better (sBA or pruritus response Yes, week 4, n 42): 57.1%
- CaGIC sleep, moderately or very much better (sBA or pruritus response Yes, week 24, n 27): 70.4%
- CGIC sleep, moderately or very much better (sBA or pruritus response Yes, week 24, n 32): 59.4%
- CaGIC sleep, moderately or very much better (sBA or pruritus response Yes, week 48, n 15): 93.3%
- CGIC sleep, moderately or very much better (sBA or pruritus response Yes, week 48, n 18): 88.9%
- % Days needing help falling asleep, mean change from baseline [11]: −23.1%
- % Days needing soothing, mean change from baseline [11]: −22.5%
- % Days with scratching associated with bleeding, mean change from baseline [11]: −16.8%
- % days sleeping with caregiver, mean change from baseline [11]: −23.1%
- Number of awakenings, mean change from baseline [11]: -−3.1
- % Days needing help falling asleep, mean change from baseline [12]: −56.1%
- % Days needing soothing, mean change from baseline [12]: −58.8%
- % Days with scratching associated with bleeding, mean change from baseline [12]: −30.9%
- % days sleeping with caregiver, mean change from baseline [12]: −48.5%
- Number of awakenings, mean change from baseline [12]: -−1.9
- % Days needing help falling asleep, mean change from baseline [13]: −73.0%
- % Days needing soothing, mean change from baseline [13]: −74.6%
- % Days with scratching associated with bleeding, mean change from baseline [13]: −41.5%
- % days sleeping with caregiver, mean change from baseline [13]: −69.1%
- Number of awakenings, mean change from baseline [13]: −11.0
- ALT, change from baseline, Mean (SE) (week 4, sBA Response No): 21 (16) U/L
- Total bilirubin, change from baseline, Mean (SE) (week 4, sBA Response No): −10 (9) μmol/L
- ALT, change from baseline, Mean (SE) (week 4, sBA Response Yes): −28 (37) U/L
- Total bilirubin, change from baseline, Mean (SE) (week 4, sBA Response Yes): −8 (4) μmol/L
- ALT, change from baseline, Mean (SE) [14]: 9 (4) U/L
- Total bilirubin, change from baseline, Mean (SE) [14]: −14 (11) μmol/L
- ALT, change from baseline, Mean (SE) [15]: −2 (24) U/L
- Total bilirubin, change from baseline, Mean (SE) [15]: −6 (4) μmol/L
- ALT, change from baseline, Mean (SE) (week 24, sBA Response No): −10 (11) U/L
- Total bilirubin, change from baseline, Mean (SE) (week 24, sBA Response No): −19 (10) μmol/L
- ALT, change from baseline, Mean (SE) (week 24, sBA Response Yes): −67 (42) U/L
- Total bilirubin, change from baseline, Mean (SE) (week 24, sBA Response Yes): −23 (8) μmol/L
- ALT, change from baseline, Mean (SE) [16]: 5 (8) U/L
- Total bilirubin, change from baseline, Mean (SE) [16]: −23 (13) μmol/L
- ALT, change from baseline, Mean (SE) [17]: −56 (27) U/L
- Total bilirubin, change from baseline, Mean (SE) [17]: −19 (7) μmol/L
- ALT, change from baseline, Mean (SE) (week 48, sBA Response No): −32 (22) U/L
- Total bilirubin, change from baseline, Mean (SE) (week 48, sBA Response No): −6 (14) μmol/L
- ALT, change from baseline, Mean (SE) (week 48, sBA Response Yes): −112 (57) U/L
- Total bilirubin, change from baseline, Mean (SE) (week 48, sBA Response Yes): −25 (11) μmol/L
- ALT, change from baseline, Mean (SE) [18]: −5 (15) U/L
- Total bilirubin, change from baseline, Mean (SE) [18]: 1 (20) μmol/L
- ALT, change from baseline, Mean (SE) [19]: −108 (48) U/L
- Total bilirubin, change from baseline, Mean (SE) [19]: −25 (9) μmol/L
- responders with moderately or very much better sleep since starting odevixibat (clinician and caregiver reported) (week 48, patients with sBA response or pruritus response): ≥ 88%
